The record followed here is patent US20060148732A1, “Inhibition of NF-kappaB by triterpene compositions” (priority 2000, published 2006).

The test system of data set [1] is Jurkat (T-cell leukemia) cells. The data set can be described thus: Cytotoxicity screen (MTT/crystal violet, 72 h). It is filed as cell-based, human. The settings on record: for inhibitory concentration 50 (IC50), growth inhibition: MTT, 72 hours. How it is done: Each of the extracts was then screened against a panel of human tumor and non-tumor cells including human ovarian cancer cell lines, T-leukemic cells, human epidermoid cells, human breast cancer cells, human prostate cancer cells, human foreskin fibroblast cells, human endothelial cells, and human renal cancer cells. The cells were first plated in 96-well plates for 18-24 hours at 37° C. The cells were then exposed to varying concentrations of the plant extracts, and incubated for 72 hours at 37° C., and stained with either MTT (3-(4,5-dimethylethiazol-2-yl)-2,5-diphenyl tetrazolium bromide; Sigma Chemical Co.) for 4 hours or crystal violet (Sigma Chemical Co.) for 20 minutes at room temperature. The MTT plates received lysis buffer (20% sodium dodecyl sulfate in 50% DMF) and were incubated for an additional 6 hours before taking an OD reading at 570 nm. The crystal violet plates were washed, dye was extracted for 3-4 hours with Sorenson's buffer (0.1 M sodium citrate (pH 4.2), 50% v/v ethanol), and the plates were read at 570-600 nm (Mujoo et al., 1996). Cytotoxicity of the screened extracts was indicated by comparing the OD readings between the treated media alone and the cells treated with the plant extract. Percent cytotoxicity was calculated by 100-% of control, where % of control =[((OD of cells treated with plant extract (treated sample))/(OD of cells exposed to media alone (untreated sample)))×100].
Assay for Growth Inhibition. The growth inhibitory activity of F094 and avicins was measured by the MTT [3-(4, 5-Dimethylthiazol-2-yl)-2, 5-diphenyl tetrazolium bromide)] reduction assay (Deng et al., 1999). Cells (1×10^4/well) were cultured with varying concentrations of F094, avicin D, or avicin G in 96 well plates for 72 hours at 37° C. The cells were stained with MTT for 2 hours and then incubated with lysis buffer (20% sodium dodecyl sulfate in 50% N,N-dimethylformamide) for another 6 hours. Optical density at 570 nm was used as a measure of cell viability.

Data set [2] has as its system caspase-3 in Jurkat cells. The data set can be described thus: Assay for caspase-3 protease. Format: cell-based, human. The settings on record: for start of caspase 3 activation: post treatment. The method, then: Caspase-3 activity was measured as described earlier (Enari et al., 1995) with some modifications. Briefly, Jurkat cells (1×10^6/ml) were treated with F035, D1 & G1 for different lengths of time. Cytosolic extracts were prepared by repeated freeze thawing in 300 μl of extraction buffer (12.5 mM Tris, pH 7.0, 1 mM DTT, 0.125 mM EDTA, 5% glycerol, 1 μM PMSF, 1 μg/ml leupeptin, 1 μg/ml pepstatin and 1 μg/ml aprotinin). Cell lystates were diluted 1:2 with ICE buffer (50 mM Tris, pH 7.0, 0.5 mM EDTA, 4 mM DTT and 20% glycerol) and incubated with 20 μM of a caspase 3 substrate (acetyl-Asp-Glu-Val-Asp-aminomethylcoumarin) at 37° C. Caspase-3 activity was monitored by the production of fluorescent aminomethylcoumarin, which was measured at excitation 355 nm, emission 460 nm using Fluoroscan II (Labsystems, Helsinki, Finland).
Assay for Caspase-3 Protease. Caspase-3 activity was measured as described earlier (Martin et al, 1995) with some modifications. Briefly, Jurkat cells (1×10^6) were treated with F094, avicin D, or avicin G (2 μg/ml) at 37° C. Cytosolic extracts were prepared by repeated freeze thawing of the cells in 300 μl of an extraction buffer (12.5 mM Tris, pH 7.0, 1 mM DTT, 0.125 mM EDTA, 5% glycerol, 1 μM PMSF, 1 μg/ml leupeptin, 1 μg/ml pepstatin, and 1 μg/ml aprotinin). Cell lysates were diluted 1:2 with an ICE buffer (50 mM Tris, pH 7.0, 0.5 mM EDTA, 4 mM DTT, and 20% glycerol) and incubated with 20 μM of a caspase-3 substrate (acetyl-Asp-Glu-Val-Asp-aminomethylcoumarin) (Calbiochem, La Jolla, Calif.) at 37° C. Caspase-3 activity was monitored by the production of flourescent aminomethylcoumarin that was measured at excitation 355 nm and emission 460 nm, using Fluoroscan II (Labsystems, Helsinki, Finland).

Data set [3] has as its system cytochrome c in Jurkat cells. Nature of the data set: Cytochrome c release from mitochondria (western blot). The following applies: 2 μg/ml. It is filed as cell-based, human. How it is done:
Release of cytochrome c from mitochondria in response to treatment with F035 was detected by western blotting. Jurkat cells (10 ×10^6) were treated with 2 μg/ml of F035 for 4 and 6 h at 37° C. Cell pellets were washed in sucrose buffer (0.25M sucrose, 30 mM Tris, pH 7.7, 1 mM EDTA). To the cell pellets added 20 μl of sucrose buffer containing 1 μM PMSF, 1 μg/ml leupeptin, 1 μg/ml pepstatin and 1 μg/ml aprotinin. Cells were disrupted by douncing 120 times in a 0.3 ml Kontes douncer with a B pestle (Kontes Glass company). Cellular protein (60 μg) was resolved on a 15% SDS-polyacrylamide gel and electrotransferred onto a nitrocellulose membrane. The membrane was probed first with monoclonal anti-cytochrome c antibody (PharMingen) and then with anti-mouse antibody conjugated to horse radish peroxidase (HRPO). Protein bands were detected by chemiluminescence (ECL, Amersham).
Detection of Cytochrome c Release from Mitochondria. Release of cytochrome c from mitochondria was detected by Western blot analysis. Jurkat cells (1×10^7) were treated with F094, avicin D, or avicin G (2 μg/ml) at 37° C. After washing the cell pellets in sucrose buffer (0.25 M sucrose, 30 mM Tris, pH 7.7, 1 mM EDTA), they were resuspended in 20 μl of sucrose buffer containing 1 μM PMSF, 1 μg/ml leupeptin, 1 μg/ml pepstatin, and 1 μg/ml aprotinin. Cells were disrupted by douncing 120 times in a 0.3 ml Kontes douncer (Kontes Glass Company, Vineland, N.J.) with a B pestle. Cellular protein (50 μg) was resolved on a 15% SDS-polyacrylamide gel and electrotransferred onto a nitrocellulose membrane. The membrane was probed with monoclonal anti-cytochrome c antibody (Pharmingen, San Diego, Calif.) followed with anti-mouse antibody conjugated to horseradish peroxidase (HRPO). Protein bands were detected by chemiluminescence (ECL, Amersham).

The subject of a further data set is Jurkat cells. Nature of the data set: Mitochondrial membrane potential (DiOC6). It is filed as cell-based, human. The settings on record: 2 μg/ml. The method, then:
Measurement of mitochondrial membrane potential (Δψm). Mitochondrial Δψm was measured as described by Zamzami, et al., 1995. After treatment with F094, avicin D, or avicin G (2 μg/ml) at 37° C, Jurkat cells were incubated with 80 nM of DiOC6 for 15 minutes at room temperature. They were then analyzed on a cytofluorometer (Facscalibar, excitation: 488 nm and emission: 552 nm).

Data set [4] is described as follows: Biological assays of purified compounds (not specified).

As to `C=C[C@](C)(O)CC/C=C(\CO)C(=O)O[C@H]1[C@H](O)[C@@H](O)[C@H](O[C@@](C)(C=C)CC/C=C(\CO)C(=O)O[C@H]2C[C@]3(C(=O)O[C@@H]4O[C@H](CO)[C@@H](O)[C@H](O)[C@H]4O[C@@H]4O[C@@H](C)[C@H](O[C@@H]5O[C@@H](CO)[C@H](O)[C@H]5O)[C@@H](O[C@@H]5O[C@H](CO)[C@@H](O)[C@H](O)[C@H]5O)[C@H]4O)[C@H](O)C[C@]4(C)C(=CC[C@@H]5[C@@]6(C)CC[C@H](O[C@@H]7O[C@H](CO[C@@H]8O[C@H](C)[C@H](O)[C@H](O)[C@H]8O[C@@H]8OC[C@@H](O)[C@H](O)[C@H]8O)[C@@H](O)[C@H](O)[C@H]7NC(C)=O)C(C)(C)[C@@H]6CC[C@]54C)[C@@H]3CC2(C)C)O[C@@H]1C` [Fraction D1], in data set [1], the “inhibitory concentration 50 (IC50), growth inhibition” value is 0.320 to 0.326 µg/mL. Further, the “Cytotoxicity IC50” value in data set [1] (pH 6.5) was 1.01 µg/mL; in data set [1] (pH 7.5), 0.98 µg/mL. The “start of caspase 3 activation” value in data set [2] turned out to be 4 h. The “increase in cytosolic cytochrome c” value stood at 1.5 fold in data set [3] (30 minutes post-treatment) and 3 fold in data set [3] (4 hours post-treatment). Moreover, the “mitochondrial membrane potential (Δψm)” value in the data set on Jurkat cells (16 hours) is “significant drop”; in the data set on Jurkat cells (up to 8 hours), “did not produce any significant changes”. In addition, the “biological activity relative to other compounds” value in data set [4] is “considerable biological activity”.
Regarding `C=C[C@](C)(O)CC/C=C(\C)C(=O)O[C@H]1[C@H](O)[C@@H](O)[C@H](O[C@@](C)(C=C)CC/C=C(\CO)C(=O)O[C@H]2C[C@]3(C(=O)O[C@@H]4O[C@H](CO)[C@@H](O)[C@H](O)[C@H]4O[C@@H]4O[C@@H](C)[C@H](O[C@@H]5O[C@@H](CO)[C@H](O)[C@H]5O)[C@@H](O[C@@H]5O[C@H](CO)[C@@H](O)[C@H](O)[C@H]5O)[C@H]4O)[C@H](O)C[C@]4(C)C(=CC[C@@H]5[C@@]6(C)CC[C@H](O[C@@H]7O[C@H](CO[C@@H]8O[C@H](C)[C@H](O)[C@H](O)[C@H]8O[C@@H]8OC[C@@H](O)[C@H](O)[C@H]8O)[C@@H](O)[C@H](O)[C@H]7NC(C)=O)C(C)(C)[C@@H]6CC[C@]54C)[C@@H]3CC2(C)C)O[C@@H]1C` [Fraction G1], in data set [1], the “inhibitory concentration 50 (IC50), growth inhibition” value was in the range of 0.160 to 0.181 µg/mL. The entries for the “Cytotoxicity IC50” value in data set [1] (pH 6.5) and in data set [1] (pH 7.5) were 0.3 µg/mL and 0.49 µg/mL, respectively. Further, the “time at which activation of caspase-3 is detectable” value in data set [2] (2 μg/ml) is 2 to 4 h. Besides, the “start of caspase 3 activation” value in data set [2] was determined as 4 h. Also, the “increase in cytosolic cytochrome c” value worked out at 3.5 fold in data set [3] (30 minutes post-treatment) and 8.4 fold in data set [3] (4 hours post-treatment). Further, the “mitochondrial membrane potential (Δψm)” value in the data set on Jurkat cells (16 hours) is “significant drop”; in the data set with Jurkat cells (up to 8 hours), “did not produce any significant changes”. The “biological activity relative to other compounds” value in data set [4] is reported as “more biologically active than D1”.
